Data reported in US20100242341A1, “CORROSION AND MICROBIAL CONTROL IN HYDROCARBONACEOUS COMPOSITIONS” (priority 2007, published 2010).

Legend:
Format in all cases: cell-based
[1] = tested on: Hormoconis resinae ATCC# 20495; assay: Microbial resistance of fuel, plate count
Experimental: (§1) Bacteria. Pseudomonas aeruginosa ATCC# 33988, Yeast: Yarrowia tropicalis ATCC# 48138, and Mold: Hormoconis resinae ATCC# 20495, are sub cultured in Bushnell-Haas broth, and used for the mixed inoculum. The organism concentrations in the mixed inoculum are as follows: Ps. aeruginosa-4.8×10^8 cfu/mL; Y. tropicalis-2.2×10^7 cfu/mL; H. resinae-6.3×10^7 cfu/mL
(§2) Testing is carried out in glass bottles with bakelite screw tops for four weeks. For each fuel sample, the aminoalcohol and then the biocide when present are added at the desired loadings to 130 mL of either diesel or biodiesel fuel with agitation for 5 min. Bushnell-Haas broth (24 mL) is added as the aqueous phase below the diesel fuel. One mL of the mixed inoculum is added. The samples are mixed weekly by turning the bottle upside down 5 times. The organism count listed for day 0 represents the initial organism populations detected in the water bottom after mixing the water bottom and the fuel.
(§3) Microbial survival is measured using the plate count method. Tryptic soy agar is used for Pseudomonas aeruginosa, and Sabouraud dextrose agar with 0.5 ug/ml gentamycin for Yarrowia tropicalis, and bacteriological grade agar 1.5%, with 0.01% potassium tellurite for Hormoconis resinae. Bacteria are incubated at 37° C. for 48 hours, and fungi at 25° C. for 5-7 days.

[2] = tested on: Pseudomonas aeruginosa ATCC# 33988; assay: Microbial resistance of fuel, plate count
Experimental: as §1, §2, §3

[3] = tested on: Yarrowia tropicalis ATCC# 48138; assay: Microbial resistance of fuel, plate count
Experimental: as §1, §2, §3

[4] = tested on: mixed inoculum (Ps. aeruginosa, Y. tropicalis, H. resinae); assay: Microbial resistance of fuel, mixed inoculum (overall statements); conditions: diesel fuel
Experimental: as §1, §2, §3

[5] = diesel, aminoalcohol 1500 ppm, Day 0
[6] = diesel, aminoalcohol 1500 ppm, Wk 1
[7] = diesel, aminoalcohol 1500 ppm, Wk 2
[8] = diesel, aminoalcohol 1500 ppm, Wk 3
[9] = diesel, aminoalcohol 1500 ppm, Wk 4
[10] = diesel, aminoalcohol 3000 ppm, Day 0
[11] = diesel, aminoalcohol 3000 ppm, Wk 1
[12] = diesel, aminoalcohol 3000 ppm, Wk 2
[13] = diesel, aminoalcohol 3000 ppm, Wk 3
[14] = diesel, aminoalcohol 3000 ppm, Wk 4
[15] = biodiesel, 3A40 1500 ppm, Week 1
[16] = biodiesel, 3A40 1500 ppm, Week 2
[17] = biodiesel, 3A40 1500 ppm, Week 3
[18] = biodiesel, 3A40 1500 ppm, Week 4
[19] = biodiesel, 3A40 3000 ppm, Week 1
[20] = biodiesel, 3A40 3000 ppm, Week 2
[21] = biodiesel, 3A40 3000 ppm, Week 3
[22] = biodiesel, 3A40 3000 ppm, Week 4

In the case of `CC(C)(N)CO` [AMP, 2-Amino-2-methyl-1-propanol, reference compound], the H. resinae count [1, 5] was 4.2E5, the H. resinae count [1, 6] was 3.0E5 and the H. resinae count [1, 7] was 6.4E5. The H. resinae count [1, 8] was 7.4E5, the H. resinae count [1, 9] was 1.8E6 and the H. resinae count [1, 10] was 4.2E5. For the same compound, the H. resinae count [1, 11] was 1.2E5, the H. resinae count [1, 12] was 4.5E5 and the H. resinae count [1, 13] was 5.8E5. For the same compound, the H. resinae count [1, 14] was 3.3E6, the Ps. aeruginosa count [2, 5] was 1.4E6 and the Ps. aeruginosa count [2, 6] was 8.7E5. It also gave a Ps. aeruginosa count [2, 7] of 2.3E6, a Ps. aeruginosa count [2, 8] of 4.4E6 and a Ps. aeruginosa count [2, 9] of 1.2E7. It also gave a Ps. aeruginosa count [2, 10] of 1.4E6, a Ps. aeruginosa count [2, 11] of 2.2E6 and a Ps. aeruginosa count [2, 12] of 4.0E6. The Ps. aeruginosa count [2, 13] was 6.0E6, the Ps. aeruginosa count [2, 14] was 4.2E7 and the Y. tropicalis count [3, 5] was 3.3E5. It also gave a Y. tropicalis count [3, 6] of 1.3E5, a Y. tropicalis count [3, 7] of 7.2E5 and a Y. tropicalis count [3, 8] of 1.3E6. For the same compound, the Y. tropicalis count [3, 9] was 7.0E6, the Y. tropicalis count [3, 10] was 3.3E5 and the Y. tropicalis count [3, 11] was 9.0E4. For the same compound, the Y. tropicalis count [3, 12] was 2.3E5, the Y. tropicalis count [3, 13] was 5.2E5 and the Y. tropicalis count [3, 14] was 4.3E6.

With `CCCCC(O)C(N)CC` (centres unmarked) [Example 3A4O, 3-amino-4-octanol] the synergy with biocide ([4]; with FUELSAVER (FIG. 1)) was “particularly synergistic”, the synergy with biocide ([4]; with Kathon (CMIT/MIT) (FIG. 2)) was “more evident early on in the testing and then appears to taper off with time” and the synergy with biocide ([4]; with the three biocides evaluated) was “Synergy, however, is observed”. For the same compound, the H. resinae count [1, 15] was <1.0E2, the H. resinae count [1, 16] was <1.0E2 and the H. resinae count [1, 17] was <1.0E2. The H. resinae count [1, 18] was <1.0E2, the H. resinae count [1, 19] was <1.0E2 and the H. resinae count [1, 20] was <1.0E2. For the same compound, the H. resinae count [1, 21] was <1.0E2, the H. resinae count [1, 22] was <1.0E2 and the H. resinae count [1, 5] was 4.2E5. The H. resinae count [1, 6] was 2.7E5, the H. resinae count [1, 7] was 3.8E5 and the H. resinae count [1, 8] was 7.7E5. For the same compound, the H. resinae count [1, 9] was 4.4E6, the H. resinae count [1, 10] was 4.2E5 and the H. resinae count [1, 11] was 3.5E5. It also gave a H. resinae count [1, 12] of 6.7E5, a H. resinae count [1, 13] of 8.2E5 and a H. resinae count [1, 14] of 6.0E6. For the same compound, the “Ps. aeruginosa count” value [2, 15] was <1.0E2, the “Ps. aeruginosa count” value [2, 16] was <1.0E2 and the “Ps. aeruginosa count” value [2, 17] was <1.0E2. The “Ps. aeruginosa count” value [2, 18] was <1.0E2, the “Ps. aeruginosa count” value [2, 19] was <1.0E2 and the “Ps. aeruginosa count” value [2, 20] was <1.0E2. For the same compound, the “Ps. aeruginosa count” value [2, 21] was <1.0E2, the “Ps. aeruginosa count” value [2, 22] was <1.0E2 and the synergy with biocide ([2]; diesel fuel, with BIT, against Ps. Aeruginosa (FIG. 3)) was “not significant”. It also gave a Ps. aeruginosa count [2, 5] of 1.4E6, a Ps. aeruginosa count [2, 6] of 1.7E6 and a Ps. aeruginosa count [2, 7] of 4.2E6. It also gave a Ps. aeruginosa count [2, 8] of 7.3E6, a Ps. aeruginosa count [2, 9] of 4.8E7 and a Ps. aeruginosa count [2, 10] of 1.4E6. For the same compound, the Ps. aeruginosa count [2, 11] was 8.7E5, the Ps. aeruginosa count [2, 12] was 2.0E6 and the Ps. aeruginosa count [2, 13] was 5.7E6. For the same compound, the Ps. aeruginosa count [2, 14] was 2.3E7, the Y. tropicalis count [3, 15] was <1.0E2 and the Y. tropicalis count [3, 16] was <1.0E2. The Y. tropicalis count [3, 17] was <1.0E2, the Y. tropicalis count [3, 18] was <1.0E2 and the Y. tropicalis count [3, 19] was <1.0E2. For the same compound, the Y. tropicalis count [3, 20] was <1.0E2, the Y. tropicalis count [3, 21] was <1.0E2 and the Y. tropicalis count [3, 22] was <1.0E2. For the same compound, the synergy with biocide ([3]; diesel fuel, with BIT, Y. tropicalis) was “evident”, the Y. tropicalis count [3, 5] was 3.3E5 and the Y. tropicalis count [3, 6] was 1.1E5. For the same compound, the Y. tropicalis count [3, 7] was 8.0E5, the Y. tropicalis count [3, 8] was 2.2E6 and the Y. tropicalis count [3, 9] was 8.3E6. It also gave a Y. tropicalis count [3, 10] of 3.3E5, a Y. tropicalis count [3, 11] of 2.0E5 and a Y. tropicalis count [3, 12] of 6.3E5. It also gave a Y. tropicalis count [3, 13] of 3.0E6 and a Y. tropicalis count [3, 14] of 1.2E7.
